According to patent EP4741420A1, “PHARMACEUTICAL COMPOSITION FOR PREVENTING OR TREATING OBESITY COMPRISING GLP ANALOGUE AS ACTIVE INGREDIENT” (priority 2023, dated 2025):
Read-outs that look alike come from different tables or passages of the source. Numbered stars: 1 amine (or outer) side, 2 acyl side, 3 side chain; on linkers, the order of the positions; unused ones are H or OH. Side chains are listed from the residue outwards. Ends that are not written are not given here. Peptide text beside a SMILES is read from it. * marks the point of attachment. mPEG 3.4 kDa = 3.4 kDa maleimidated PEG on Cys; C18 diacid = O=C(O)CCCCCCCCCCCCCCCCC(=O)*; γGlu = O=C(O)[C@H](CCC(=O)[*:2])N[*:1]; Palmitoyl = CCCCCCCCCCCCCCCC(=O)*

Columns and labels:
GLP-2 = biological target: T1, GLP-2 (Homo sapiens, UniProt O95838); assay: GLP-2 activity, cell-based cAMP assay (same method as Example 2)
T1 sequence (O95838 1-553): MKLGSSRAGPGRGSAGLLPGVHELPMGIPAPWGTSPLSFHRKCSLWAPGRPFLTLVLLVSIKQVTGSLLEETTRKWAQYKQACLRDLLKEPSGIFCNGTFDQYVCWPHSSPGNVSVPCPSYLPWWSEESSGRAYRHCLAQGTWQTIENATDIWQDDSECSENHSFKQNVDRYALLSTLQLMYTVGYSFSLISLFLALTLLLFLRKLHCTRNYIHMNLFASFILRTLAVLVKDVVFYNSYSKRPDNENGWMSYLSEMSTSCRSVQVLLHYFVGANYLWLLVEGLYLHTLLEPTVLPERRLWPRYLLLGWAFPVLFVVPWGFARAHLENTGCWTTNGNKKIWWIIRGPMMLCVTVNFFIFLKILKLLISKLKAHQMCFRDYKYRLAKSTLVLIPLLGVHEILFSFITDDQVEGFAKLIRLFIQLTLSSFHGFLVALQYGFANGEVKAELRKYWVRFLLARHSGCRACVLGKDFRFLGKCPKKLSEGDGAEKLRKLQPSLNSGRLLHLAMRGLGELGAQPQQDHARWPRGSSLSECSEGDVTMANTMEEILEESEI

[1] = Mouse PK after single subcutaneous administration, LC-MS/MS of plasma; type: in vivo, mice; settings: for AUC(0-t) / Cmax / half-life / Tmax: mouse, in vivo, sc; for Cmax: read-out: Cmax
Procedure: Each of the experimental groups and the control was subcutaneously administered once to the dorsal area of a total of 12 mice using a 1 mL syringe equipped with a 26-gauge needle at a dose of 0.2 mg/5 mL/kg. After drug administration, approximately 0.04 to 0.05 mL of blood was collected per individual at the time scheduled for the orbital vein (4 mice were alternately sampled), and the blood collection times were 1, 2, 4, 8, 24 ,32 ,48, 56, 72, 96, and 120 hours. All plasma samples were analyzed using a self-developed LC-MS/MS assay. Pharmacokinetic analysis of blood drugs was performed using non-compartmental analysis, and analysis of pharmacokinetic parameters was performed using Phoenix WinNolin 64 (Version. 8.3.5 340).

[2] = biological target: GLP-1R (on GLP-1R/CHO cells, DiscoverX 95-0062C2) (UniProt P43220 24-463); assay: cell-based or functional assay
Chain of GLP-1R (on GLP-1R/CHO cells, DiscoverX 95-0062C2) (P43220 24-463 limits assumed): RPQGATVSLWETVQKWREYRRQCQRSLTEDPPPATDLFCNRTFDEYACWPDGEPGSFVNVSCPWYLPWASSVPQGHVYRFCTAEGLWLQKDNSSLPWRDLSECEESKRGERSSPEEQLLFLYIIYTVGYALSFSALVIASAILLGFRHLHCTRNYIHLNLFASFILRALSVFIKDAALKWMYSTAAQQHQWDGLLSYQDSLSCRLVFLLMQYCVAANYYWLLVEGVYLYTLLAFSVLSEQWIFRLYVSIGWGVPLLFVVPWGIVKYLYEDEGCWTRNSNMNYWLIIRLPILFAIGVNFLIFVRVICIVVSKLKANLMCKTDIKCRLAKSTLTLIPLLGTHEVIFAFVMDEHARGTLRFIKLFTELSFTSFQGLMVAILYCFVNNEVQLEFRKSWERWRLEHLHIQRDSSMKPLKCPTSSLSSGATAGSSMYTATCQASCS

[3] = 0.2 mg/kg, C57BL/6N male mice, single subcutaneous dose 0.2 mg/5 mL/kg, plasma
[4] = 0.2 mg/kg, C57BL/6N male mice, single subcutaneous dose 0.2 mg/5 mL/kg, plasma, read-out: T1/2 (converted)
[5] = 0.2 mg/kg, C57BL/6N male mice, single subcutaneous dose 0.2 mg/5 mL/kg, plasma, read-out: Tmax

Molecule: CC[C@H](C)[C@H](NC(=O)[C@H](Cc1ccccc1)NC(=O)[C@H](CC(=O)O)NC(=O)[C@H](CCCNC(=N)N)NC(=O)[C@H](C)NC(=O)[C@H](C)NC(=O)[C@H](CC(C)C)NC(=O)[C@H](CC(N)=O)NC(=O)[C@H](CC(=O)O)NC(=O)[C@H](CC(C)C)NC(=O)[C@@H](NC(=O)[C@@H](NC(=O)[C@H](CC(N)=O)NC(=O)[C@H](CCSC)NC(=O)[C@H](CCC(=O)O)NC(=O)[C@H](CC(=O)O)NC(=O)[C@H](CO)NC(=O)[C@H](Cc1ccccc1)NC(=O)[C@H](CO)NC(=O)CNC(=O)[C@H](CC(=O)O)NC(=O)[C@H](C)NC(=O)[C@@H](N)Cc1c[nH]cn1)[C@@H](C)O)[C@@H](C)CC)C(=O)N[C@@H](CC(N)=O)C(=O)N[C@@H](Cc1c[nH]c2ccccc12)C(=O)N[C@@H](CC(C)C)C(=O)N[C@H](C(=O)N[C@@H](CCC(N)=O)C(=O)N[C@H](C(=O)N[C@@H](CCCCN)C(=O)N[C@H](C(=O)N[C@H](C(=O)N[C@@H](CC(=O)O)C(=O)O)[C@@H](C)O)[C@@H](C)CC)[C@@H](C)O)[C@@H](C)CC [GLP-2 (Synthesized), GLP-2, reference compound]
- GLP-2 activity Compared to GLP-2 (GLP-2; Example 5, relative to GLP-2): 100%

Molecule: CC[C@H](C)[C@H](NC(=O)[C@H](Cc1ccccc1)NC(=O)[C@H](CC(=O)O)NC(=O)[C@H](CCCNC(=N)N)NC(=O)[C@H](C)NC(=O)[C@H](C)NC(=O)[C@H](CC(C)C)NC(=O)[C@H](C)NC(=O)[C@H](CC(=O)O)NC(=O)[C@H](CC(C)C)NC(=O)[C@H](Cc1ccc(O)cc1)NC(=O)[C@@H](NC(=O)[C@H](CO)NC(=O)[C@H](CC(C)C)NC(=O)[C@H](CC(=O)O)NC(=O)[C@H](CO)NC(=O)[C@@H](NC(=O)[C@H](Cc1ccccc1)NC(=O)[C@@H](NC(=O)CNC(=O)[C@H](CCC(=O)O)NC(=O)C(C)(C)NC(=O)[C@@H](N)Cc1c[nH]cn1)[C@@H](C)O)[C@@H](C)O)[C@@H](C)O)C(=O)N[C@@H](CC(N)=O)C(=O)N[C@@H](Cc1c[nH]c2ccccc12)C(=O)N[C@@H](CC(C)C)C(=O)N[C@H](C(=O)N[C@@H](CCC(N)=O)C(=O)N[C@H](C(=O)N[C@@H](CCCCN)C(=O)N[C@H](C(=O)N[C@H](C(=O)N[C@@H](CC(=O)O)C(=O)N[C@@H](CCCCN)C(=O)N[C@@H](CCCCNC(=O)CC[C@H](NC(=O)CCCCCCCCCCCCCCCCCCC(=O)O)C(=O)O)C(=O)O)[C@@H](C)O)[C@@H](C)CC)[C@@H](C)O)[C@@H](C)CC [HU020M5] (HELM PEPTIDE1{H.[Aib].E.G.T.F.T.S.D.L.S.T.Y.L.D.A.L.A.A.R.D.F.I.N.W.L.I.Q.T.K.I.T.D.K.K}|PEPTIDE2{[O=C(O)CCCCCCCCCCCCCCCCCCC(=O)[*:2]].[gGlu]}$PEPTIDE1,PEPTIDE2,35:R3-2:R2$$$V2.0)
- AUC(0-t) [1, 3]: 20500 ng·h/mL
- Cmax [1, 3]: 661 ng/mL
- half-life [1, 4]: 15.2 h
- Tmax [1, 5]: 8 h

Molecule: CCCCCCCCCCCCCCCC(=O)N[C@@H](CCC(=O)NCCCC[C@H](NC(=O)[C@H](CCCCN)NC(=O)[C@H](CC(=O)O)NC(=O)[C@@H](NC(=O)[C@@H](NC(=O)[C@H](CCCCN)NC(=O)[C@@H](NC(=O)[C@H](CCC(N)=O)NC(=O)[C@@H](NC(=O)[C@H](CC(C)C)NC(=O)[C@H](Cc1c[nH]c2ccccc12)NC(=O)[C@H](CC(N)=O)NC(=O)[C@@H](NC(=O)[C@H](Cc1ccccc1)NC(=O)[C@H](CC(=O)O)NC(=O)[C@H](CCCNC(=N)N)NC(=O)[C@H](C)NC(=O)[C@H](C)NC(=O)[C@H](CC(C)C)NC(=O)[C@H](C)NC(=O)[C@H](CC(=O)O)NC(=O)[C@H](CC(C)C)NC(=O)[C@H](Cc1ccc(O)cc1)NC(=O)[C@@H](NC(=O)[C@H](CO)NC(=O)[C@H](CC(C)C)NC(=O)[C@H](CC(=O)O)NC(=O)[C@H](CO)NC(=O)[C@@H](NC(=O)[C@H](Cc1ccccc1)NC(=O)[C@@H](NC(=O)CNC(=O)[C@H](CCC(=O)O)NC(=O)C(C)(C)NC(=O)[C@@H](N)Cc1c[nH]cn1)[C@@H](C)O)[C@@H](C)O)[C@@H](C)O)[C@@H](C)CC)[C@@H](C)CC)[C@@H](C)O)[C@@H](C)CC)[C@@H](C)O)C(=O)O)C(=O)O [HU020M3] (HELM PEPTIDE1{H.[Aib].E.G.T.F.T.S.D.L.S.T.Y.L.D.A.L.A.A.R.D.F.I.N.W.L.I.Q.T.K.I.T.D.K.K}|PEPTIDE2{[CCCCCCCCCCCCCCCC(=O)[*:2]].[gGlu]}$PEPTIDE1,PEPTIDE2,35:R3-2:R2$$$V2.0)
- AUC(0-t) [1, 3]: 5070 ng·h/mL
- Cmax [1, 3]: 315 ng/mL
- half-life [1, 4]: 7 h
- Tmax [1, 5]: 12 h

Molecule: CC[C@H](C)[C@H](NC(=O)[C@H](Cc1ccccc1)NC(=O)[C@H](CC(=O)O)NC(=O)[C@H](CCCNC(=N)N)NC(=O)[C@H](C)NC(=O)[C@H](C)NC(=O)[C@H](CC(C)C)NC(=O)[C@H](C)NC(=O)[C@H](CC(=O)O)NC(=O)[C@H](CC(C)C)NC(=O)[C@H](Cc1ccc(O)cc1)NC(=O)[C@@H](NC(=O)[C@H](CO)NC(=O)[C@H](CC(C)C)NC(=O)[C@H](CC(=O)O)NC(=O)[C@H](CO)NC(=O)[C@@H](NC(=O)[C@H](Cc1ccccc1)NC(=O)[C@@H](NC(=O)CNC(=O)[C@H](CCC(=O)O)NC(=O)C(C)(C)NC(=O)[C@@H](N)Cc1c[nH]cn1)[C@@H](C)O)[C@@H](C)O)[C@@H](C)O)C(=O)N[C@@H](CC(N)=O)C(=O)N[C@@H](Cc1c[nH]c2ccccc12)C(=O)N[C@@H](CC(C)C)C(=O)N[C@H](C(=O)N[C@@H](CCC(N)=O)C(=O)N[C@H](C(=O)N[C@@H](CCCCN)C(=O)N[C@H](C(=O)N[C@H](C(=O)N[C@@H](CC(=O)O)C(=O)N[C@@H](CCCCN)C(=O)N[C@@H](CCCCNC(=O)CC[C@H](NC(=O)CCCCCCCCCCCCCCCCC(=O)O)C(=O)O)C(=O)O)[C@@H](C)O)[C@@H](C)CC)[C@@H](C)O)[C@@H](C)CC [HU020M4] (HELM PEPTIDE1{H.[Aib].E.G.T.F.T.S.D.L.S.T.Y.L.D.A.L.A.A.R.D.F.I.N.W.L.I.Q.T.K.I.T.D.K.K}|PEPTIDE2{[O=C(O)CCCCCCCCCCCCCCCCC(=O)[*:2]].[gGlu]}$PEPTIDE1,PEPTIDE2,35:R3-2:R2$$$V2.0)
- half-life longer than that of semaglutide ([1]; mouse PK, relative to semaglutide): 1.5 fold
- AUC(0-t) [1, 3]: 23800 ng·h/mL
- Cmax [1, 3]: 810 ng/mL
- half-life [1, 4]: 10.7 h
- Tmax [1, 5]: 8 h

Molecule: CC[C@H](C)[C@H](NC(=O)[C@H](Cc1ccccc1)NC(=O)[C@H](CC(=O)O)NC(=O)[C@H](CCCNC(=N)N)NC(=O)[C@H](C)NC(=O)[C@H](C)NC(=O)[C@H](CC(C)C)NC(=O)[C@H](C)NC(=O)[C@H](CC(=O)O)NC(=O)[C@H](CC(C)C)NC(=O)[C@H](Cc1ccc(O)cc1)NC(=O)[C@@H](NC(=O)[C@H](CO)NC(=O)[C@H](CC(C)C)NC(=O)[C@H](CC(=O)O)NC(=O)[C@H](CO)NC(=O)[C@@H](NC(=O)[C@H](Cc1ccccc1)NC(=O)[C@@H](NC(=O)CNC(=O)[C@H](CCC(=O)O)NC(=O)CNC(=O)[C@@H](N)Cc1c[nH]cn1)[C@@H](C)O)[C@@H](C)O)[C@@H](C)O)C(=O)N[C@@H](CC(N)=O)C(=O)N[C@@H](Cc1c[nH]c2ccccc12)C(=O)N[C@@H](CC(C)C)C(=O)N[C@H](C(=O)N[C@@H](CCC(N)=O)C(=O)N[C@H](C(=O)N[C@@H](CCCCN)C(=O)N[C@H](C(=O)N[C@H](C(=O)N[C@@H](CC(=O)O)C(=O)N[C@@H](CCCCN)C(=O)N[C@@H](CCCCNC(=O)CC[C@H](NC(=O)CCCCCCCCCCCCCCCCC(=O)O)C(=O)O)C(=O)O)[C@@H](C)O)[C@@H](C)CC)[C@@H](C)O)[C@@H](C)CC [HU020M1] (HELM PEPTIDE1{H.G.E.G.T.F.T.S.D.L.S.T.Y.L.D.A.L.A.A.R.D.F.I.N.W.L.I.Q.T.K.I.T.D.K.K}|PEPTIDE2{[O=C(O)CCCCCCCCCCCCCCCCC(=O)[*:2]].[gGlu]}$PEPTIDE1,PEPTIDE2,35:R3-2:R2$$$V2.0)
- Tmax ([1]; male, C57BL/6N): 12 h
- half-life ([1]; male, C57BL/6N): 13.8 h

Molecule: HGEGTFTSDLSTYLDALAARDFINWLIQTKITD [HU020]
- EC50 (GLP-2; Example 5): 650 nM

Molecule: HGEGTFTSDLSTYLDALAARDFINWLIQTKITDKK([γGlu-C18 diacid]) [HU020M1]
- GLP-1 activity (EC50, pM) [2]: 113 pM
- GLP-1 activity, Compared to GLP-1 (Exendin-4) [2]: 6.3%

Molecule: HGEGTFTSDLSTYLDALAAC(mPEG 3.4 kDa)DFINWLIQTKITDKK([γGlu-Palmitoyl]) [HU020M6]
- GLP-1 activity (EC50, pM) [2]: 45.7 pM
- GLP-1 activity, Compared to GLP-1 (Exendin-4) [2]: 15.5%
